The target in assay [1] is CDK2/Cyclin E1 full length (Homo sapiens (Human), UniProt P24941). In words: CDK2/Cyclin E1 full length mobility shift assay. The class given is biochemical.
In a further assay the target is GSK3β (H350L) (Homo sapiens (Human), UniProt P49841). The settings on record: read-out: GSK3β Ki.

Ki data for 25 molecules are collected here from US11014911B2, “CDK2 inhibitors” (Pfizer Inc., priority 2019, dated 2021).

Sequence of GSK3β (H350L) (P49841 whole entry, stated change not applied): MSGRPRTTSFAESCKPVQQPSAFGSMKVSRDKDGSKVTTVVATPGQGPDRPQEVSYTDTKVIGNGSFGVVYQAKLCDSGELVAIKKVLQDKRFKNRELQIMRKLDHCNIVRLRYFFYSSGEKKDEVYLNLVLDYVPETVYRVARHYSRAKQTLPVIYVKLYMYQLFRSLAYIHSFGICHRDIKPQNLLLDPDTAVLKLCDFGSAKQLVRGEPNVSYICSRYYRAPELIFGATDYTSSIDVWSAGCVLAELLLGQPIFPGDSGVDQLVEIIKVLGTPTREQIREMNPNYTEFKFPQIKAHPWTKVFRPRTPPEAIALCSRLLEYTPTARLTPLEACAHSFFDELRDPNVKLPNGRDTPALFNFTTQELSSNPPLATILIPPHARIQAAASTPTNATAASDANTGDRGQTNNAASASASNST
Experimental for GSK3β (H350L): The assay was initiated with the addition of ATP, following 15 minutes pre-incubation of enzyme and inhibitor at room temperature in the reaction mixture. The reaction was stopped after 30 minutes at room temperature by the addition of 50 μL of 80 mM EDTA.

Consider `COc1cc(CC(=O)Nc2cc([C@@H]3CC[C@H](OC(=O)N[C@H]4CC[C@H](O)CC4)C3)[nH]n2)ccn1` [Example 555, (1S,3R)-3-(3-{[(2-methoxypyridin-4-yl)acetyl]amino}-1H-pyrazol-5-yl)cyclopentyl (trans-4-hydroxycyclohexyl)carbamate], for which the inhibition constant Ki (usually a measure of affinity in units of concentration, obtained from inhibition or displacement) in assay [1] worked out at 0.37 nM; at GSK3β (H350L), 3.58 nM.
The corresponding values for `COc1ccc(CC(=O)Nc2cc([C@@H]3CC[C@H](OC(=O)N[C@H]4CC[C@H](O)CC4)C3)[nH]n2)nc1` [Example 557, (1S,3R)-3-(3-{[(5-methoxypyridin-2-yl)acetyl]amino}-1H-pyrazol-5-yl)cyclopentyl (trans-4-hydroxycyclohexyl)carbamate] are 1.01 nM and 2.6 nM.
The corresponding values for `C[C@]1(O)CC[C@@H](NC(=O)O[C@H]2CC[C@@H](c3cc(NC(=O)Cc4ccccc4)n[nH]3)C2)CC1` [Example 558, (1S,3R)-3-{3-[(phenylacetyl)amino]-1H-pyrazol-5-yl}cyclopentyl (cis-4-hydroxy-4-methylcyclohexyl)carbamate] are 0.41 nM and 18.6 nM.
In the case of `C[C@]1(O)CC[C@H](NC(=O)O[C@H]2CC[C@@H](c3cc(NC(=O)Cc4ccccc4)n[nH]3)C2)CC1` [Example 559, (1S,3R)-3-{3-[(phenylacetyl)amino]-1H-pyrazol-5-yl}cyclopentyl (trans-4-hydroxy-4-methylcyclohexyl)carbamate], the Ki in assay [1] was 1.44 nM; at GSK3β (H350L), 8.58 nM.
Regarding `C[C@]1(O)CC[C@@H](NC(=O)O[C@H]2CC[C@@H](c3cc(NC(=O)Cc4ccc(F)cc4)n[nH]3)C2)CC1` [Example 560, (1S,3R)-3-(3-{[(4-fluorophenyl)acetyl]amino}-1H-pyrazol-5-yl)cyclopentyl (cis-4-hydroxy-4-methylcyclohexyl)carbamate], the values for the inhibition constant (Ki) (in assay [1]; on GSK3β (H350L)) were 0.6 nM and 9.84 nM, respectively.
The corresponding values for `Cc1ncc(CC(=O)Nc2cc([C@@H]3CC[C@H](OC(=O)N[C@H]4CC[C@@](C)(O)CC4)C3)[nH]n2)s1` [Example 562, (1S,3R)-3-(3-{[(2-methyl-1,3-thiazol-5-yl)acetyl]amino}-1H-pyrazol-5-yl)cyclopentyl (cis-4-hydroxy-4-methylcyclohexyl)carbamate] are 0.43 nM and 4.85 nM.
Turning to `Cc1ncc(CC(=O)Nc2cc([C@@H]3CC[C@H](OC(=O)N[C@H]4CC[C@](C)(O)CC4)C3)[nH]n2)s1` [Example 563, (1S,3R)-3-(3-{[(2-methyl-1,3-thiazol-5-yl)acetyl]amino}-1H-pyrazol-5-yl)cyclopentyl (trans-4-hydroxy-4-methylcyclohexyl)carbamate], the Ki in assay [1] is 1.8 nM; on GSK3β (H350L), 4.35 nM.
The corresponding values for `COc1ccc(CC(=O)Nc2cc([C@@H]3CC[C@H](OC(=O)N[C@H]4CC[C@@](C)(O)CC4)C3)[nH]n2)cc1` [Example 564, (1S,3R)-3-(3-{[(4-methoxyphenyl)acetyl]amino}-1H-pyrazol-5-yl)cyclopentyl (cis-4-hydroxy-4-methylcyclohexyl)carbamate] are 0.37 nM and 10.1 nM.
The corresponding values for `COc1ccc(CC(=O)Nc2cc([C@@H]3CC[C@H](OC(=O)N[C@H]4CC[C@](C)(O)CC4)C3)[nH]n2)cc1` [Example 565, (1S,3R)-3-(3-{[(4-methoxyphenyl)acetyl]amino}-1H-pyrazol-5-yl)cyclopentyl (trans-4-hydroxy-4-methylcyclohexyl)carbamate] are 1.24 nM and 4.07 nM.
The corresponding values for `COc1ccc(CC(=O)Nc2cc([C@H]3CC[C@@H](OC(=O)N[C@H]4CC[C@@](C)(O)CC4)C3)[nH]n2)cc1` [Example 566, (1R,3S)-3-(3-{[(4-methoxyphenyl)acetyl]amino}-1H-pyrazol-5-yl)cyclopentyl (cis-4-hydroxy-4-methylcyclohexyl)carbamate] are 0.79 nM and 37.6 nM.
Take `COc1cc(CC(=O)Nc2cc([C@@H]3CC[C@H](OC(=O)N[C@H]4CC[C@@](C)(O)CC4)C3)[nH]n2)ccn1` [Example 568, (1S,3R)-3-(3-{[(2-methoxypyridin-4-yl)acetyl]amino}-1H-pyrazol-5-yl)cyclopentyl (cis-4-hydroxy-4-methylcyclohexyl)carbamate]: the figures for the inhibition constant Ki (in assay [1]; at GSK3β (H350L)) were 0.41 nM and 5.12 nM, respectively.
The corresponding values for `COc1cc(CC(=O)Nc2cc([C@@H]3CC[C@H](OC(=O)N[C@H]4CC[C@](C)(O)CC4)C3)[nH]n2)ccn1` [Example 569, (1S,3R)-3-(3-{[(2-methoxypyridin-4-yl)acetyl]amino}-1H-pyrazol-5-yl)cyclopentyl (trans-4-hydroxy-4-methylcyclohexyl)carbamate] are 1.25 nM and 4.31 nM.
The corresponding values for `COc1ccc(CC(=O)Nc2cc([C@@H]3CC[C@H](OC(=O)N[C@H]4CC[C@@](C)(O)CC4)C3)[nH]n2)cn1` [Example 570, (1S,3R)-3-(3-{[(6-methoxypyridin-3-yl)acetyl]amino}-1H-pyrazol-5-yl)cyclopentyl (cis-4-hydroxy-4-methylcyclohexyl)carbamate] are 0.35 nM and 3.29 nM.
The corresponding values for `COc1ccc(CC(=O)Nc2cc([C@@H]3CC[C@H](OC(=O)N[C@H]4CC[C@](C)(O)CC4)C3)[nH]n2)cn1` [Example 571, (1S,3R)-3-(3-{[(6-methoxypyridin-3-yl)acetyl]amino}-1H-pyrazol-5-yl)cyclopentyl (trans-4-hydroxy-4-methylcyclohexyl)carbamate] are 1.08 nM and 2.28 nM.
As to `C[C@]1(O)CC[C@@H](NC(=O)O[C@@H]2CC[C@H](c3cc(NC(=O)Cc4cc(F)cc(F)c4)n[nH]3)C2)CC1` [Example 572, (1R,3S)-3-(3-{[(3,5-difluorophenyl)acetyl]amino}-1H-pyrazol-5-yl)cyclopentyl (cis-4-hydroxy-4-methylcyclohexyl)carbamate], the inhibition constant Ki in assay [1] worked out at 0.37 nM; on GSK3β (H350L), 24.2 nM.
The corresponding values for `C[C@]1(O)CC[C@H](NC(=O)O[C@@H]2CC[C@H](c3cc(NC(=O)Cc4cc(F)cc(F)c4)n[nH]3)C2)CC1` [Example 573, (1R,3S)-3-(3-{[(3,5-difluorophenyl)acetyl]amino}-1H-pyrazol-5-yl)cyclopentyl (trans-4-hydroxy-4-methylcyclohexyl)carbamate] are 0.83 nM and 14.1 nM.
The corresponding values for `C[C@H]1CCN1C(=O)O[C@@H]1CC[C@H](c2cc(NC(=O)c3cnnn3C)n[nH]2)C1` [Example 586, (1R,3S)-3-(3-{[(1-methyl-1H-1,2,3-triazol-5-yl)carbonyl]amino}-1H-pyrazol-5-yl)cyclopentyl (2S)-2-methylazetidine-1-carboxylate] are 0.88 nM and 51.5 nM.
Regarding `COCCn1nccc1C(=O)Nc1cc([C@H]2CC[C@@H](OC(=O)N3CC[C@@H]3C)C2)[nH]n1` [Example 594, (1R,3S)-3-[3-({[1-(2-methoxyethyl)-1H-pyrazol-5-yl]carbonyl}amino)-1H-pyrazol-5-yl]cyclopentyl (2S)-2-methylazetidine-1-carboxylate], the Ki in assay [1] stood at 0.62 nM; at GSK3β (H350L), 14.3 nM.
With `Cc1cnc(CC(=O)Nc2cc([C@H]3CC[C@@H](OC(=O)N4CCC4(C)C)C3)[nH]n2)cn1` [Example 601, (1R,3S)-3-(3-{[(5-methylpyrazin-2-yl)acetyl]amino}-1H-pyrazol-5-yl)cyclopentyl 2,2-dimethylazetidine-1-carboxylate], the Ki turned out to be 0.39 nM in assay [1] and 7.32 nM on GSK3β (H350L).
The corresponding values for `C[C@H]1C[C@H](C)N1C(=O)O[C@@H]1CC[C@H](c2cc(NC(=O)Cc3cnn(C)c3)n[nH]2)C1` [Example 605, (1R,3S)-3-(3-{[(1-methyl-1H-pyrazol-4-yl)acetyl]amino}-1H-pyrazol-5-yl)cyclopentyl (2S,4S)-2,4-dimethylazetidine-1-carboxylate] are 0.32 nM and 9.89 nM.
Consider `Cc1cnc(CC(=O)Nc2cc([C@H]3CC[C@@H](OC(=O)N4[C@@H](C)C[C@@H]4C)C3)[nH]n2)o1` [Example 606, (1R,3S)-3-(3-{[(5-methyl-1,3-oxazol-2-yl)acetyl]amino}-1H-pyrazol-5-yl)cyclopentyl (2S,4S)-2,4-dimethylazetidine-1-carboxylate], for which the Ki in assay [1] was found to be 0.63 nM; at GSK3β (H350L), 11.5 nM.
As to `COc1cc(CC(=O)Nc2cc([C@@H]3CC[C@H](OC(=O)N4C[C@H](O)[C@H]4C)C3)[nH]n2)ccn1` [Example 611, (1S,3R)-3-(3-{[(2-methoxypyridin-4-yl)acetyl]amino}-1H-pyrazol-5-yl)cyclopentyl (2R,3S)-3-hydroxy-2-methylazetidine-1-carboxylate], the Ki was 1.67 nM in assay [1] and 13.9 nM at GSK3β (H350L).
The corresponding values for `COc1cc(CC(=O)Nc2cc([C@H]3CC[C@@H](OC(=O)N4C[C@@H](O)[C@@H]4C)C3)[nH]n2)ccn1` [Example 612, (1R,3S)-3-(3-{[(2-methoxypyridin-4-yl)acetyl]amino}-1H-pyrazol-5-yl)cyclopentyl (2S,3R)-3-hydroxy-2-methylazetidine-1-carboxylate] are 0.45 nM and 8.01 nM.
Take `COc1ccc(CC(=O)Nc2cc([C@@H]3CC[C@H](OC(=O)N4C[C@@H](O)[C@@H]4C)C3)[nH]n2)cn1` [Example 614, (1S,3R)-3-(3-{[(6-methoxypyridin-3-yl)acetyl]amino}-1H-pyrazol-5-yl)cyclopentyl (2S,3R)-3-hydroxy-2-methylazetidine-1-carboxylate]: the Ki in assay [1] was 1.66 nM; at GSK3β (H350L) it was 6.58 nM.
For `COc1ccc(CC(=O)Nc2cc([C@H]3CC[C@@H](OC(=O)N4C[C@H](O)[C@H]4C)C3)[nH]n2)cn1` [Example 616, (1R,3S)-3-(3-{[(6-methoxypyridin-3-yl)acetyl]amino}-1H-pyrazol-5-yl)cyclopentyl (2R,3S)-3-hydroxy-2-methylazetidine-1-carboxylate], the inhibition constant Ki was found to be 0.28 nM in assay [1] and 4.05 nM on GSK3β (H350L).
